Experimental data taken from patent US7429397B2, “Herbal formulation as memory enhancer in Alzheimer condition” (Council of Scientific and Industrial Research, priority 2004, dated 2008).
Marks after values point to notes of the source that are not given here.

What was measured:
[1] = test system: λ carrageenin induced edema in rats; assay: λ carrageenin induced paw edema; assay type: in vivo
Description: Carrageenin induced paw edema: Rats were injected with 0.1 ml of 1% λ carrageenin (St.-Louis, Mo.) into the subplantar side of the left hind paw. The paw was marked with ink at the level of the lateral malleolus and dipped in perspex cell up to this mark. The paw volume was measured with an Ugo Basile Plethysmometer (No: 61402) (7140 Comerio-varese, Italy) immediately and 3 h after injecting the λ carrageenin suspension. […] Significant reductions in the paw volume compared to vehicle treated control animals were considered as anti-inflammatory response. Percentage inhibition of oedema was calculated as follows: % Inhibition=(1−VT/VC)×100 VT=Paw volume in drug treated rats, VC=Paw volume in control group of rats.

[2] = test system: impairment of memory acquisition in step-down test in rats (scopolamine); assay: Passive avoidance task (step-down test), scopolamine-induced impairment of memory acquisition; assay type: in vivo
Description: Passive avoidance task (step-down test): A step-down passive avoidance was examined using apparatus consisted of a box (25×25×40 cm), a floor with stainless-steel grid 2 mm in diameter at 8-mm intervals, and a rubber platform (4 cm diameter, 4 cm height) set on the grid in one corner. Electric stimulation was given through the grid connected with a scrambled shock generator. […] For this trial, each rat was placed gently on the platform and allowed to habituate freely for 3 min, and then electric shock (0.4 mA) were delivered to the grid. If the rat stepped down from the platform, the electric shock was delivered to the rat on the grid floor. The cut off time was 2 min. A retention trail was performed 24 hr after the acquisition trail. Each rat was again placed on the platform. Time (step-down latency) that elapsed until rats stepped down from the electric grid of the platform to shock free zone was recorded. […] An error was counted when ever the rat stepped down from platform. The number of error made in 2 min was recorded.

## COc1ccc2c(c1)c(CC(=O)O)c(C)n2C(=O)c1ccc(Cl)cc1 [Indomethacin]
[1]; 100 mg/kg orally 1 h before carrageenin, six rats, mean ± SEM
  Paw volume (ml) at 3 h λ carrageenin: 0.18 ± 0.02^c ml
[1]; Rattus norvegicus, inhibition of paw oedema at 3 h vs control, 100 mg/kg, (1−VT/VC)×100
  inhibition at 100 mg/kg: 79.3%

## CN1[C@@H]2C[C@@H](OC(=O)[C@H](CO)c3ccccc3)C[C@H]1[C@@H]1O[C@@H]12 [Scopolamine]
[2]; scopolamine treated group
  number of mistakes and latency period (in words): significant increase in the number of mistakes as well as increase the latency period
[2]; step-down test, rats n=10, scopolamine 0.4 mg/kg i.p., formulations 100 mg/kg, tacrine dose not given, mean ± S.E.M.
  Latency: 8.8 ± 0.03 s
